Data set [1] has as its system 9L GBM cell line tumor in the brain. In words: Syngeneic 9L GBM intra-brain tumor survival (Example 10). It counts as in vivo, Fischer rats. How it is done:
Seventy-five (75) animals were designated for this study. The animals were divided into nine groups as described in Table 6. Group 1 served as untreated control. Groups 2 and 3 served as positive controls and were treated with temozolomide (SOC chemotherapy treatment in GBM patients) by gavage in low (33.5 mg/kg) and high doses (50 mg/kg), respectively. Group 4 (n=10) was treated with Formulation II vehicle at the defect site in the same amount as the Formulation II high amount group. Groups 5-8 (n=10/group) were treated at the excision site Formulation II at 5, 10, 25, or 50 mg/defect site. At study initiation, an incision was made and the calvarium bone of all animals was exposed and 5 mm diameter defect was drilled in the calvarium bone. The dura was cut and the brain was exposed. Each animal was injected with 9L cells (10^5 cells/2 μL/animal) at a depth of ˜1 mm in the brain using a stereotaxic instrument. Following injection of the cells, the incision was sutured. Animals were returned to their cages to recover. Treatment (temozolomide or Formulation II) was set to start five days post cell injection. For Formulation II/Formulation II vehicle treatment, the brain defects in Groups 4-8 were reopened and test articles were administered on top of the site of injection, inside the defect at Day 5. The defects were sealed with bone wax. Animals were returned to their cages to recover. Survival, clinical signs, body weight, and evaluation of cognitive behavior were followed during the study.

The test system of data set [2] is U87 human GBM cell line tumor xenograft. In words: Resected U87 GBM xenograft, different amounts of Formulation II (Example 9). The following applies: 300 mg/kg intraperitoneal, four times, every 7 days. How it is done:
This study was performed to assess the efficacy of the anti-tumor effect of different amounts of the sustained release compositions according to some exemplary embodiments of the invention on U87 human GBM cell line tumor xenograft in nude mice.
Mice were injected subcutaneously (SC) with 3 million U87 cells above the right hip. When the tumor reached the volume of about 400 mm^3 after about 9 days, animals were divided to six groups (n=10/group), the mice were anesthetized, and the tumors were resected. The tumor bed sizes were measured and documented. Groups 1, 2 and 3 were administered 20, 50, or 100 mg of formulation II; 0.87% docetaxel locally on the tumor bed, respectively. Group 4 was administered 100 mg of formulation II vehicle (excipients only without DTX) locally on the tumor bed. Group 5 served as a saline control in which ˜100 μL saline was administered locally into the tumor bed. Group 6 served as positive control and was treated with gemcitabine (300 mg/kg administered as an intraperitoneal injection, four times, every 7 days). The skin incision was then closed using a sterile suture. Post-surgery, the animals were returned to their cages for recovery and observation. Tumor size, clinical signs, and body weights were followed for 43 days.
After tumor resection, the area of the tumor bed was measured. […] The applications of Formulation II were calculated and normalized to amount per 1 cm^2 tumor bed area. The normalized application rates and docetaxel doses are detailed in Table 5.

A further data set has as its system KB-P-15 Epidermoid cells. The settings on record: cited from earlier work.
In data set [3] the test system is HCT-8 colorectal carcinoma cells. The settings on record: cited from earlier work.
For another data set, the system named is KB-D-15 Epidermoid cells. The following applies: cited from earlier work.
In data set [4] the test system is A549.EpoB40 non squamous cell lung carcinoma. The settings on record: cited from earlier work.
For data set [5], the system named is HCT-15 colorectal carcinoma cells. The settings on record: cited from earlier work.
Data set [6] relates to KB-PTX/099 Epidermoid cells. The settings on record: cited from earlier work.
The next data set has as its system KB-V-1 Epidermoid cells. The following applies: cited from earlier work.
The test system of another data set is KB-8-5 Epidermoid cells. The settings on record: cited from earlier work.
The test system of data set [7] is DLD-1 colorectal carcinoma cells. The following applies: cited from earlier work.
Another data set has as its system LLC1 cell line tumors. In words: Antitumor and anti-metastatic effect on resected LLC1 tumors (Example 13). The following applies: 6 mg/kg IP twice a week. It counts as in vivo. How it is done: The objective of this study was to assess the efficacy of the antitumor and anti-metastatic effect of different amounts of Formulation II on mouse syngeneic louis lung carcinoma (LLC1) cell line tumors in C57BL mice. The selected cell line (LLC1) is known to spontaneously form metastases in the lungs originating from a primary tumor.
Male C57BL mice, 7-8 weeks old, weighing 18-21 grams were designated for this study. LLC1 tumor cells were injected SC to the back of the mice. When the tumors reached a volume of about 400 mm^3 they were resected (at least 90% of the tumor volume was removed; average area of 0.7 cm^2). The animals were divided into 6 groups (n=10). Groups 1-4 were administered different amounts of Formulation II directly to the tumor bed. Untreated group (Group 5) served as negative control and systemically treated group (Group 6) served as positive control. Five (5) animals served as sham group, they were not injected with tumor cells but underwent the surgical procedure (Group 7). Following treatment, the surgical site was sewed and animals were returned to their cages for recovery. Animals that had tumors larger than 1500 mm^3 were humanly terminated. At termination the number of metastases in the lungs was counted in each animal.
The number of metastases was counted post termination/death. In some cases, the lungs condition didn't allow evaluation of metastases. were too decomposed and therefore the number of metastases in these lungs were not evaluated. The counting discriminated between small metastases (0.1-0.5 mm) and big metastases (>0.5 mm). In case of large number of metastases (>100), it was defined as too numerus to count (TNTC).

As for `Cn1nnc2c(C(N)=O)ncn2c1=O` [Temozolomide], the mean survival was determined as 18.8 ± 2.7 days in data set [1] (33.5 mg/kg PO daily for 5 days) and 21.8 ± 3.3 days in data set [1] (50 mg/kg PO daily for 5 days). Besides, in data set [1] (day 23, 33.5 mg/kg, 5 treatment days), the survival rate is 0%.

On to `Nc1ccn([C@@H]2O[C@H](CO)[C@@H](O)C2(F)F)c(=O)n1` [gemcitabine], for which, in data set [2], the animals found dead is recorded as 4 and the “animals terminated due to tumor volume that exceeded 1500 mm^3” value stood at 4. Further, in data set [2] (Day 43), the survival rate turned out to be 20% and the tumor free animals is listed as 2/10. Besides, the average tumor volume in data set [2] (after 43 days) is on record as 780 mm^3.

`CC(=O)O[C@H]1C(=O)[C@@]2(C)[C@H]([C@H](OC(=O)c3ccccc3)[C@]3(O)C[C@H](OC(=O)[C@H](O)[C@@H](NC(=O)c4ccccc4)c4ccccc4)C(C)=C1C3(C)C)[C@]1(OC(C)=O)CO[C@@H]1C[C@@H]2O` [paclitaxel]: the IC50 (in general, the concentration needed to halve the response being measured) with KB-P-15 Epidermoid cells is 117 nM; in data set [3] it was 3290 nM; in the data set on KB-D-15 Epidermoid cells it was 566 nM; in [4], 128 nM; in data set [5], 435 nM; in [6], 74.1 nM. Also, the IC50 in the data set on KB-V-1 Epidermoid cells is 3200 nM; in the data set with KB-8-5 Epidermoid cells, 70.2 nM; in data set [7], 32.8 nM.

For the compound `CC(=O)O[C@H]1C(=O)[C@@]2(C)[C@H]([C@H](OC(=O)c3ccccc3)[C@]3(O)C[C@H](OC(=O)[C@H](O)[C@@H](NC(=O)c4ccccc4)c4ccccc4)C(C)=C1C3(C)C)[C@]1(OC(C)=O)CO[C@@H]1C[C@@H]2O` [taxel], in the data set with LLC1 cell line tumors, the “animals that had tumor” value is listed as 4/10, the average lung weight came to 226 ± 114 mg, the average tumor volume turned out to be 490 mm^3 and the “average weight at termination lower than weight at t=0” value was found to be 4%. Also, the “metastases free animals (lungs)” value with LLC1 cell line tumors is 5/10. In addition, the “animals early terminated due to tumor volume” value in the data set on LLC1 cell line tumors (day 23) is on record as “One”. Also, the animals found dead entry in the data set with LLC1 cell line tumors (day 25) is “one”.

Source of the values: patent publication US20240050396A1, “COMPOSITIONS AND METHODS FOR THE TREATMENT OF SOLID TUMORS” (POLYPID LTD., priority 2020, published 2024).
